Measured values reported in US7892840B2, “Media compositions for eluting compounds from matrices and methods for making and using them” (Medtronic MiniMed, Inc., priority 2008, dated 2011).
Where two headings read alike, the source gives them in different places.

Legend:
[1] = cited from earlier work
[2] = Elution of dexamethasone sodium phosphate from drug coated pace maker leads in conventional media; format: physicochemical; conditions: e.g. a media that utilizes just a surfactant
Text: The data disclosed in FIGS. 1-6 provides illustrative embodiments of the methods of invention that examine the elution of dexamethasone sodium phosphate from a polymeric silicone matrix. These examples provide an illustration of the power of the methodological embodiments of the invention, in particular in view of the fact that the elution of dexamethasone sodium phosphate from silicone polymer/drug coated pace maker leads is known to be minimal in conventional solvents. For example, certain elution media and methods may not be ideal for all drugs (e.g. dexamethasone sodium phosphate). For example, dexamethasone sodium phosphate is water soluble whereas typical methodologies described in the art are more suitable for water insoluble or sparingly soluble drugs. […]
While the methodological embodiments of the invention can be used to assess the elution of a wide variety of compounds from a wide variety of matrices, these methods of the invention are particularly useful in the context of the manufacture of drug eluting implantable medical devices. For example, the safety and efficacy of drug coated pace maker leads are readily evaluated using the unique dissolution methods and materials disclosed herein. […]

[3] = format: physicochemical
Procedure: To evaluate buffers with different pH, Dexamethasone sodium phosphate can be dissolved in an elution media (e.g. one of the different embodiments of the invention disclosed herein). […] This concentration was about 10 times the concentration that might be observed if the drug from the typical device was completely eluted in about 75 mL of media.

[4] = cited from earlier work; remark: listed apart in the source

Structure (SMILES) | miscibility in alcohols and ether ([1]; alcohols and ether) | solubility in water [1] | elution of the drug in conventional media systems [2] | stability with respect to pH (rank order) [3] | elution from silicone polymer/drug coated pace maker leads in conventional solvents [4] | solubility in water ([1]; in words) | solubility in water ([1]; in words, listed as dexamethasone sodium phosphate)
OCc1ccccc1 [Benzyl alcohol, Phenylmethanol] | completely miscible | 4 g/100 mL |  |  |  |  | 
C[C@@H]1C[C@H]2[C@@H]3CCC4=CC(=O)C=C[C@]4(C)[C@@]3(F)[C@@H](O)C[C@]2(C)[C@@]1(O)C(=O)COP(=O)(O)O [Dexamethasone sodium phosphate] |  |  | minimal | pH 4>pH 7.5>pH 9 | minimal | freely soluble in water | water soluble
